Assay results published in ChEMBL document CHEMBL6121036, “Evaluation of Cereblon-Directing Warheads for the Development of Orally Bioavailable PROTACs” (J Med Chem, 2025).
In brackets after ≈: the same amount, converted by molar mass. Activity calls are given as the source filed them. No cut-off for these calls is given here.

Key:
[1] = biological target: T1, Protein cereblon/Bromodomain-containing protein 4/DNA damage-binding protein 1 (Homo sapiens) (UniProt O60885+Q96SW2+Q16531); assay: Binding affinity to his-tagged CRBN/DDB1/GST-tagged BRD4 (49 to 170 residues)(unknown origin) assessed as ternary complex formation (AUC) incubated for 1 hr by luminescence based Alphascreen assay; assay type: protein assay
[2] = biological target: T2, Protein cereblon/Bromodomain-containing protein 2 (Homo sapiens) (UniProt P25440+Q96SW2); assay: PROTAC activity at CRBN/Hibit-tagged CRISPR BRD2 (unknown origin) expressed in HEK293 cells coexpressing LgBiT assessed as degradation of BRD2 by […] glo-max assay; assay type: cell-based
[3] = Effect on ZFP36L2 level in human MV4-11 cells assessed as fold change at 100 nM measured after 4 hrs; assay type: functional
[4] = biological target: T3, Protein cereblon/Bromodomain-containing protein 4 (Homo sapiens, UniProt O60885+Q96SW2); assay: PROTAC activity at CRBN/Hibit-tagged CRISPR BRD4 (unknown origin) expressed in HEK293 cells co-expressing LgBiT assessed as degradation of BRD4 by […] glo-max assay relative to control; assay type: cell-based
[5] = Effect on BRD4 level in human MV4-11 cells assessed as fold change at 100 nM measured after 4 hrs; assay type: functional
[6] = biological target: T4, Protein cereblon/Bromodomain-containing protein 3 (Homo sapiens) (UniProt Q15059+Q96SW2); assay: PROTAC activity at CRBN/Hibit-tagged CRISPR BRD3 (unknown origin) expressed in HEK293 cells co-expressing LgBiT assessed as degradation of BRD3 by […] glo-max assay relative to control; assay type: cell-based
[7] = Kinetic aqueous solubility of the compound at pH 7.4; assay type: physicochemical; settings: read-out: Kinetic_solubility
[8] = biological target: T3, Protein cereblon/Bromodomain-containing protein 4; assay: PROTAC activity at CRBN/Hibit-tagged BRD4 (unknown origin) expressed in HEK293 cells co-expressing LgBiT assessed as degradation rate incubated for 24 hrs by […] glo-max assay; assay type: cell-based
[9] = Permeability in MDCK-II cells incubated for 1 hr by UPLC/MS/UV analysis; assay type: ADME, cell-based, Canis lupus familiaris; settings: dog, read-out: permeability
[10] = Effect on RNF166 level in human MV4-11 cells assessed as fold change at 100 nM measured after 4 hrs; assay type: functional
[11] = Effect on NOP53 level in human MV4-11 cells assessed as fold change at 100 nM measured after 4 hrs; assay type: functional
[12] = biological target: T3, Protein cereblon/Bromodomain-containing protein 4; assay: PROTAC activity at CRBN/Hibit-tagged BRD4 (unknown origin) expressed in HEK293 cells co-expressing LgBiT assessed as degradation of BRD4 incubated for 24 hrs by […] glo-max assay; assay type: cell-based
[13] = biological target: T3, Protein cereblon/Bromodomain-containing protein 4; assay: PROTAC activity at CRBN/Hibit-tagged CRISPR BRD4 (unknown origin) expressed in HEK293 cells co-expressing LgBiT assessed as degradation of BRD4 measured after 18 to 24 hrs by […] glo-max assay; assay type: cell-based; settings: time 18-24 hrs
[14] = Effect on CCND3 level in human MV4-11 cells assessed as fold change at 100 nM measured after 4 hrs; assay type: functional
[15] = Stability in mouse plasma assessed as half life by UPLC-MS/MS analysis; assay type: ADME, cell-free
[16] = biological target: T4, Protein cereblon/Bromodomain-containing protein 3 (Homo sapiens); assay: PROTAC activity at CRBN/Hibit-tagged CRISPR BRD3 (unknown origin) expressed in HEK293 cells co-expressing LgBiT assessed as degradation of BRD3 by […] glo-max assay; assay type: cell-based
[17] = Effect on TP53 level in human MV4-11 cells assessed as fold change at 100 nM measured after 4 hrs; assay type: functional
[18] = Effect on MCL1 level in human MV4-11 cells assessed as fold change at 100 nM measured after 4 hrs; assay type: functional
[19] = biological target: Protein cereblon (Homo sapiens) (UniProt Q96SW2); assay: Binding affinity to CRBN (unknown origin)
[20] = biological target: T2, Protein cereblon/Bromodomain-containing protein 2 (Homo sapiens); assay: PROTAC activity at CRBN/Hibit-tagged CRISPR BRD2 (unknown origin) expressed in HEK293 cells coexpressing LgBiT assessed as degradation of BRD2 measured after 10 to 14 hrs by […] glo-max assay; assay type: cell-based; settings: time 10-14 hrs
MV4-11 = assay: Cytotoxicity against human MV4-11 cells assessed as reduction in cell viability incubated for 72 hrs by cell-titer glo assay; assay type: functional, cell-based; settings: MV4-11, 72 h
[21] = Effect on FYTTD1 level in human MV4-11 cells assessed as fold change at 100 nM measured after 4 hrs; assay type: functional
[22] = Effect on ZBTB21 level in human MV4-11 cells assessed as fold change at 100 nM measured after 4 hrs; assay type: functional
[23] = biological target: T3, Protein cereblon/Bromodomain-containing protein 4; assay: PROTAC activity at CRBN/Hibit-tagged BRD4 (unknown origin) expressed in HEK293 cells co-expressing LgBiT assessed as degradation of BRD4 incubated for 24 hrs by […] glo-max assay relative to control; assay type: cell-based
[24] = Metabolic stability in mouse liver microsomes assessed as half life; assay type: ADME, Microsome; settings: liver microsomes
[25] = Effect on CDC42EP3 level in human MV4-11 cells assessed as fold change at 100 nM measured after 4 hrs; assay type: functional
HD-MB03 = assay: Cytotoxicity against human HD-MB03 cells assessed as reduction in cell viability incubated for 72 hrs by cell-titer glo assay; assay type: functional, cell-based; settings: HD-MB03, 72 h
[26] = Effect on BRD2 level in human MV4-11 cells assessed as fold change at 100 nM measured after 4 hrs; assay type: functional
[27] = Effect on FGL2 level in human MV4-11 cells assessed as fold change at 100 nM measured after 4 hrs; assay type: functional
[28] = Effect on PLAU level in human MV4-11 cells assessed as fold change at 100 nM measured after 4 hrs; assay type: functional
[29] = Effect on MYC level in human MV4-11 cells assessed as fold change at 100 nM measured after 4 hrs; assay type: functional
[30] = biological target: T4, Protein cereblon/Bromodomain-containing protein 3 (Homo sapiens); assay: PROTAC activity at CRBN/Hibit-tagged CRISPR BRD3 (unknown origin) expressed in HEK293 cells co-expressing LgBiT assessed as degradation of BRD3 measured after 13 to 16 hrs by […] glo-max assay; assay type: cell-based; settings: time 13-16 hrs
[31] = Effect on BRD3 level in human MV4-11 cells assessed as fold change at 100 nM measured after 4 hrs; assay type: functional
[32] = Effect on PLK1 level in human MV4-11 cells assessed as fold change at 100 nM measured after 4 hrs; assay type: functional
[33] = Effect on CCNF level in human MV4-11 cells assessed as fold change at 100 nM measured after 4 hrs; assay type: functional
[34] = biological target: T2, Protein cereblon/Bromodomain-containing protein 2 (Homo sapiens); assay: PROTAC activity at CRBN/Hibit-tagged CRISPR BRD2 (unknown origin) expressed in HEK293 cells coexpressing LgBiT assessed as degradation of BRD2 by […] glo-max assay relative to control; assay type: cell-based
[35] = biological target: T3, Protein cereblon/Bromodomain-containing protein 4; assay: PROTAC activity at CRBN/Hibit-tagged CRISPR BRD4 (unknown origin) expressed in HEK293 cells co-expressing LgBiT assessed as degradation of BRD4 by […] glo-max assay; assay type: cell-based
HEK293 = assay: Cytotoxicity against HEK293 cells expressing LgBiT fused HiBiT-BRD2 measured after 24 hrs by cell titer-glo assay; assay type: toxicity, cell-based; settings: human, hek293, 24 h
[36] = Effect on NSA2 level in human MV4-11 cells assessed as fold change at 100 nM measured after 4 hrs; assay type: functional
[37] = Effect on AURKA level in human MV4-11 cells assessed as fold change at 100 nM measured after 4 hrs; assay type: functional
[38] = biological target: T1, Protein cereblon/Bromodomain-containing protein 4/DNA damage-binding protein 1 (Homo sapiens); assay: Binding affinity to his-tagged CRBN/DDB1/GST-tagged BRD4 (49 to 170 residues)(unknown origin) assessed as ternary complex formation by measuring AUC incubated for 1 hr by luminescence based Alphascreen assay; assay type: protein assay

| Compound | Activity [1] | fold change (FC) [3] | fold change (FC) [5] | solubility kinetic [7] [µM] | Activity [8] [fRLU/hr] | fold change (FC) [10] | fold change (FC) [11] | DC50 [12] [nM] | fold change (FC) [14] | half-life [15] [h] | fold change (FC) [17] | fold change (FC) [18] | IC50 (MV4-11) [nM] | fold change (FC) [21] | fold change (FC) [22] | Emax [23] [%] | half-life [24] [h] | fold change (FC) [25] | IC50 (HD-MB03) [nM] | fold change (FC) [26] | further results |
| --- | --- | --- | --- | --- | --- | --- | --- | --- | --- | --- | --- | --- | --- | --- | --- | --- | --- | --- | --- | --- | --- |
| Cc1sc2c(c1C)C(c1ccc(Cl)cc1)=N[C@@H](CC(=O)N1CCC(CN3CCN(c4ccc5c(c4)CN(C4CCC(=O)NC4=O)C5=O)CC3)CC1)c1nnc(C)n1-2 (some centres undefined) | Active | -1 | -3.57 | 48.4 (≈ 39.1 µg/mL) | 0.201 | -0.92 | -0.82 | 0.58 | -0.97 | 29.8 | 1.87 | -1.06 | 0.14 | -1.54 | -0.1 | 96.6 | 0.75 | -1.25 | 1.56 | -2.91 | Activity [2]: Active; Activity [4]: > 90%; Activity [6]: > 95%; Papp at 1 h [9]: 3.4 ×10⁻⁶ cm/s; Activity [13]: Active; Activity [16]: Active; Activity [19]: Active; Activity [20]: Active; fold change (FC) [27]: -1.05; fold change (FC) [28]: -1.05; fold change (FC) [29]: -1.72; Activity [30]: Active; fold change (FC) [31]: -3.9; fold change (FC) [32]: -0.78; fold change (FC) [33]: -1.47; Activity [34]: > 95%; Activity [35]: Active; Activity (HEK293): Non-toxic; fold change (FC) [36]: -1.06; fold change (FC) [37]: -0.9 |
| Cc1sc2c(c1C)C(c1ccc(Cl)cc1)=N[C@@H](CC(=O)NCCc1ccc(C3CCC(=O)NC3=O)cc1)c1nnc(C)n1-2 (some centres undefined) | Active |  |  | 71.4 (≈ 43.9 µg/mL) | 0.733 |  |  | 0.19 |  |  |  |  | 0.18 |  |  | 98 | 0.27 |  | 2.23 |  | AUC [38]: 292000; Activity (HEK293): Non-toxic |
| Cc1sc2c(c1C)C(c1ccc(Cl)cc1)=N[C@@H](CC(=O)N1CCC(CN3CCN(c4ccc(NC5CCC(=O)NC5=O)cc4)CC3)CC1)c1nnc(C)n1-2 (some centres undefined) | Active | -0.75 | -2.24 | 5.7 (≈ 4.38 µg/mL) | 0.036 | -0.29 | -0.49 | 6.51 | -0.56 | 12.9 | 1.12 | -0.49 | 2.92 | -0.84 | -0.14 | 34.9 | 2.45 | -1 | 31.4 | -1.8 | fold change (FC) [27]: -1.19; fold change (FC) [28]: -0.73; fold change (FC) [29]: -1.77; fold change (FC) [31]: -2.78; fold change (FC) [32]: -0.56; fold change (FC) [33]: -0.38; Activity [34]: < 50%; fold change (FC) [36]: -0.65; fold change (FC) [37]: -0.55 |
